Results on one molecule are retold here after patent US20070225213A1, “Nucleic acid carriers for delivery of therapeutic agents” (priority 2006, published 2007).

In one data set the test system is 3T3. As to the kind of experiment: Toxicity of NAC-MTN vs CD-MTN and MTN, MTT (Example 9, EX042105). Type of data set: cell-based, mouse. The method, then: (§1) FIG. 4. […] The relative toxicity of NAC-MTN was compared with MTN and CD-MTN in four cell lines, MCF7(breast cancer), COS7green monkey kidney (SV40 transformed), 3T3 (mouse fibroblast), and BHK21(hamster kidney). Cells were treated with identical amounts of MTN formulated as either NAC-MTN, MTN only, or poly-beta-cyclodextrin-sulfylbutylether(CD-MTN). After an incubation period, cell viability was assayed with MTT assay. The differences in toxicity between NAC-MTN and MTN or NAC-MTN and CD-MTN are shown as % difference. Greater percentage difference correlates to more reduction in relative NAC-MTN toxicity.
(§2) MCF7, COS7, 3T3, and BHK21 cells were plated out in duplicate rows of equivalent cell density in 100ul final volume. Initial cell densities were 2000 cells/well.
(§3) Preparing NAC-MTN, CD-MTN, and MTN only. Combined 180 ul of 0.05 mg/ml MTN with […] 0.1 mg/ml herring sperm genomic DNA (HSGDNA, Promega), 1500 ul of 2× DMEM media containing 20% FBS to give 3.0 ml final volume and 12% final drug loading in the dsDNA. For MTN only, 180 ul of MTN was combined with 1320 ul H2O and 1500 ul 2× DMEM. […]
(§4) Aspirated media in plate and replaced with 50 ul of 0.5 mg/ml MTT in 1× media, incubated 3 hours, aspirated, air dried 5 min and dissolved in 100 ul of isopropyl, read OD at A570. […]

The next data set relates to BHK21. The data set is described as above. It is filed as cell-based, hamster. The method, then:
as §1, §2, §3, §4

A further data set relates to COS7. As to the kind of experiment: Effect of plating time on uptake of NAC-MTN and MTN, fluorescence (Example 11). Type of data set: cell-based, green monkey. The procedure:
The effect of plating time on the differential rates of uptake between NAC-MTN and MTN were assayed in cells treated <1 hour and 24 hours after plating.
On day 1, MCF7, COS7, 3T3, and BHK21 cells were plated out in a standard tissue culture plate. After incubation of 20 minutes samples were added to cells in rows A, C, E, and G. Cells were incubated at 37C in a standard atmosphere of 5%CO2.
On day 2, samples were added to rows D, F, and H and the fluorescence was obtained EX620/EM680 S=80. Samples were removed from A,C,E and G, replaced with media and fluorescence read again. On day 2 observed significant drug toxicity in cells of rows A,C, E, G. Sample addition was postponed in row B since MCF7 were not yet confluent.
On day 3, added samples to cells in row B containing confluent MCF7's, removed samples from rows D, F, and H replaced with media and read fluorescence.
Fluorescence data from cells taken after removal of media was used to quantitate total MTN retained in the cells. Fluorescence data were converted to mg/ml MTN using a standard curve prepared with free MTN or NAC-MTN.
The percentage difference in fluorescence between cells treated with NAC-MTN or MTN alone was used to compare relative drug uptake.
The MTN fluorescence ratios were obtained by dividing MTN fluorescence of cells incubated for 24 hours by fluorescence of cells incubated 30 minutes. […] The uptake in BHK21 was roughly equivalent for NAC-MTN regardless of plate adherence, however it should be noted that BHK21 adhere very rapidly to the plate.
Fluorescence data were converted to micromolar drug concentrations (uM MTN) using a standard curve for either nucleic acid bound or unbound drug, and drug uptake ratios were obtained by dividing the t(24 hour)/t(30 min.). The ratios of absolute drug concentration per well show more dramatic differences in uptake as shown below.

Data set [1] in a line: DNA addition method: NAC complexed vs unbound MTN in mouse urine (Example 17).
Description: To determine if NAC-MTN was excreted in urine as a complex, MTN fluorescence due to unbound NAC was assayed by an addition method. DNA was added to urine from both groups and subsequent change in fluorescence was measured.
Where [2] appears, read: 2 uM final MTN, MTT 48 hours after adding samples.

On to `O=C1c2c(O)ccc(O)c2C(=O)c2c(NCCNCCO)ccc(NCCNCCO)c21` [MTN, mitoxantrone], for which the results for the “% tox. relative to media only” value in the data set with 3T3 (setting [2]) and in the data set with BHK21 (setting [2]) were 37.57% and 51.76%, respectively. Further, the toxic effect result with 3T3 (after 24 hours, 2 uM MTN) was “no toxic effect”. Further, in the data set with BHK21 (after 20-24 hour incubation with MTN, 2 uM), the “toxicity (est.)” value is around 50%. The “MTN FLUOR Ratio of t(24)/t(<1)” value in the data set with COS7 amounted to 0.70. Further, the “FLUOR (MTN fluorescence in cells)” value in the data set with COS7 (cells treated 24 hour after plating) was 15289; in the data set with COS7 (cells treated <1 hour after plating), 13814. Further, the “Ratio uM MTN of t(24)/t(<1)” value in the data set on COS7 (from standard curve for bound or unbound drug) stood at 1.2. Besides, the entries for the “% Change Fluor. on DNA addition to urine” value in data set [1] (Elapsed Time 2.5 hr), in data set [1] (Elapsed Time 5 hr) and in data set [1] (Elapsed Time 8 hr) were 83%, 66% and 71%, respectively.
